# Assay results: the supplement of paper PMC11061612
# Key:
# [1] = tested on: CAL-39 (Other Solid Carcinomas); experiment: Bliss excess, mean over the matrix (fraction); higher = more synergy
# Procedure, shortened: (§1)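 Cell lines grown in DMEM/F12 or RPMI with 10% FBS were plated in 1536-well plates and held 24 hours at 37°C, 5% CO2 before 72 hours of exposure to two-drug dose matrices, with DMSO typically at 0.2%. CellTiter-Glo 2.0 luminescence gave viability, which was converted to inhibition. Vehicle wells were set to 0 and blank wells to 1. Combination Emax is the second-highest inhibition in the matrix, and Bliss excess is the observed combination effect minus the expected EA + EB − EA·EB, where EA and EB are the single-agent effects.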
# CS1 (Chondrosarcoma) [2] = experiment: as above
# Procedure, shortened: as §1
# D-392MG (Glioblastoma) = experiment: as above
# Procedure, shortened: as §1
# [3] = tested on: FU-OV-1 (Ovarian Carcinoma); experiment: as above
# Procedure, shortened: as §1
# [4] = tested on: HCT-116 (Colorectal Carcinoma); experiment: as above
# Procedure, shortened: as §1
# MSTO-211H (Mesothelioma) [5] = experiment: as above
# Procedure, shortened: as §1
# [6] = tested on: NOMO-1 (Acute Myeloid Leukemia); experiment: as above
# Procedure, shortened: as §1
# [7] = tested on: P31-FUJ (Acute Myeloid Leukemia); experiment: as above
# Procedure, shortened: as §1
# SK-MEL-1 (Melanoma) = experiment: as above
# Procedure, shortened: as §1
# [8] = tested on: SNG-M (Endometrial Carcinoma); experiment: as above
# Procedure, shortened: as §1
# [9] = tested on: SW48 (Colorectal Carcinoma); experiment: as above
# Procedure, shortened: as §1
# [10] = tested on: SW948 (Colorectal Carcinoma); experiment: as above
# Procedure, shortened: as §1
# [11] = tested on: WSU-DLCL2 (B-Cell Non-Hodgkin's Lymphoma); experiment: as above
# Procedure, shortened: as §1
# [12] = tested on: CAL-39 (Other Solid Carcinomas); experiment: combination Emax (second highest fraction inhibited in the dose matrix, 72 h); higher = more inhibition; extreme values may be limits of the assay
# Procedure, shortened: as §1
# CS1 (Chondrosarcoma) [13] = experiment: as above
# Procedure, shortened: as §1
# [14] = tested on: HCT-116 (Colorectal Carcinoma); experiment: as above
# Procedure, shortened: as §1
# [15] = tested on: MEG-01 (Chronic Myelogenous Leukemia); experiment: as above
# Procedure, shortened: as §1
# MSTO-211H (Mesothelioma) [16] = experiment: as above
# Procedure, shortened: as §1
# [17] = tested on: SW48 (Colorectal Carcinoma); experiment: as above
# Procedure, shortened: as §1
# [18] = tested on: TC-YIK (Other Solid Carcinomas); experiment: as above
# Procedure, shortened: as §1
# 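Wherever Bliss excess, mean over the matrix is given: after 72 h of two-drug dosing.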
SMILES,Bliss excess [1],Bliss excess (CS1 (Chondrosarcoma) [2]),Bliss excess (D-392MG (Glioblastoma)),Bliss excess [3],Bliss excess [4],Bliss excess (MSTO-211H (Mesothelioma) [5]),Bliss excess [6],Bliss excess [7],Bliss excess (SK-MEL-1 (Melanoma)),Bliss excess [8],Bliss excess [9],Bliss excess [10],Bliss excess [11],combination Emax [12],combination Emax (CS1 (Chondrosarcoma) [13]),combination Emax [14],combination Emax [15],combination Emax (MSTO-211H (Mesothelioma) [16]),combination Emax [17],combination Emax [18]
"C[C@@H](Nc1cc(F)cc(F)c1)c1cc(C(=O)N(C)C)cc2c(=O)cc(N3CCOCC3)oc12 [AZD8186] + CC(=O)c1c(C)c2cnc(Nc3ccc(N4CCNCC4)cn3)nc2n(C2CCCC2)c1=O [Palbociclib] (first compound max 10 µM, 7x7, partner max 10 µM)",0.125,0.0326,-0.0827,-0.0311,0.0488,0.135,0.0983,-0.0164,0.0098,-0.0361,0.0715,-0.0457,0.0762,0.772,0.513,0.684,0.182,0.428,0.617,0.741
"C[C@@H](Oc1cc(-c2cnn(C3CCNCC3)c2)cnc1N)c1c(Cl)ccc(F)c1Cl [Crizotinib] + CC1=C(C(=CC=C1)Cl)NC(=O)C2=CN=C(S2)NC3=CC(=NC(=N3)C)N4CCN(CC4)CCO [Dasatinib] (first compound max 10 µM, 7x7, partner max 2 µM)",0.027,0.112,0.0503,0.0761,0.0243,0.0718,-0.025,-0.0311,-0.0554,0.0813,-0.0118,-0.0118,0.0824,0.987,0.836,0.95,1,0.674,0.892,0.796
"C[C@@H](Oc1cc(-c2cnn(C3CCNCC3)c2)cnc1N)c1c(Cl)ccc(F)c1Cl [Crizotinib] + Cn1cnc2c(F)c(Nc3ccc(Br)cc3Cl)c(C(=O)NOCCO)cc21 [Selumetinib] (first compound max 10 µM, 7x7, partner max 10 µM)",0.0132,-0.0203,-0.0718,0.0748,0.0323,0.0294,0.0157,-0.0781,-0.0618,-0.0333,-0.0323,0.0137,-0.0458,0.866,0.619,0.964,1,0.576,0.95,0.858
"O=C(c1cc(Cc2n[nH]c(=O)c3ccccc23)ccc1F)N1CCN(C(=O)C2CC2)CC1 [Olaparib] + CC1(C)CCC(CN2CCN(c3ccc(C(=O)NS(=O)(=O)c4ccc(NCC5CCOCC5)c([N+](=O)[O-])c4)c(Oc4cnc5[nH]ccc5c4)c3)CC2)=C(c2ccc(Cl)cc2)C1 [Venetoclax] (first compound max 10 µM, 7x7, partner max 1 µM)",-0.0425,-0.0621,-0.0886,-0.0467,-0.0156,-0.0264,0.0666,-0.0121,-0.023,-0.0347,-0.0239,-0.0528,0.0235,0.0578,0.15,0.384,0.109,0.0774,0.175,0.403
"O=C(c1cc(Cc2n[nH]c(=O)c3ccccc23)ccc1F)N1CCN(C(=O)C2CC2)CC1 [Olaparib] + CN(CC[C@H](CSC1=CC=CC=C1)NC2=C(C=C(C=C2)S(=O)(=O)NC(=O)C3=CC=C(C=C3)N4CCC(CC4)[C@H](C5=CC=CC=C5C6=CC=C(C=C6)Cl)O)S(=O)(=O)C(F)(F)F)CCO [AZD4320] (first compound max 10 µM, 7x7, partner max 1 µM)",-0.0242,-0.0342,-0.0317,-0.0355,-0.0103,-0.0173,0.034,-0.131,-0.0299,-0.014,-0.0239,-0.0165,0.0579,0.116,0.431,0.509,0.505,0.456,0.687,0.984
"O=C(c1cc(Cc2n[nH]c(=O)c3ccccc23)ccc1F)N1CCN(C(=O)C2CC2)CC1 [Olaparib] + COc1nnc2ccc(N3CCC(c4ccc(OCCN5CCN(C)C(=O)[C@H]5C)cc4)CC3)nn12 [AZD5153] (first compound max 10 µM, 7x7, partner max 1 µM)",-0.0634,-0.0718,-0.0759,-0.0107,-0.0206,-0.0085,-0.0589,-0.0621,-0.0316,-0.0663,-0.071,-0.0441,-0.0091,0.518,0.374,0.741,0.76,0.246,0.561,0.85
"O=C(c1cc(Cc2n[nH]c(=O)c3ccccc23)ccc1F)N1CCN(C(=O)C2CC2)CC1 [Olaparib] + Cc1c2c(nn1C)CSCc1cc(n(C)n1)CSc1cc(c3ccccc3c1)OCCCc1c(C(=O)O)n(C)c3c-2c(Cl)ccc13 [AZD5991] (first compound max 10 µM, 7x7, partner max 1 µM)",-0.0409,-0.0483,-0.0661,-0.071,-0.0086,-0.029,-0.0167,-0.0125,-0.0301,0.002,-0.0253,-0.0449,0.0378,0.21,0.0992,0.37,0.116,0.0433,0.178,0.449
"N#Cc1cnc(Nc2cc(NC[C@H]3CNCCO3)c(C(F)(F)F)cn2)cn1 [SRA737] + C=CCn1c(=O)c2cnc(Nc3ccc(N4CCN(C)CC4)cc3)nc2n1-c1cccc(C(C)(C)O)n1 [AZD1775] (first compound max 10 µM, partner max 1 µM)",-0.0255,0.0399,-0.0523,0.0719,0.0011,0.131,0.0706,0.0411,-0.0195,-0.0045,0.0468,0.0054,0.205,0.454,0.596,0.758,0.935,0.726,0.764,0.858
"N#Cc1cnc(Nc2cc(NC[C@H]3CNCCO3)c(C(F)(F)F)cn2)cn1 [SRA737] + Nc1ccn([C@@H]2O[C@H](CO)[C@@H](O)C2(F)F)c(=O)n1 [Gemcitabine] (first compound max 10 µM, 7x7, partner max 0.3 µM)",0.0461,0.0679,0.0579,-0.0233,0.0063,-0.0082,-0.0169,0.057,0.0048,-0.0731,0.0107,0.079,0.111,0.932,0.737,0.873,0.883,0.83,0.841,0.872
"N#Cc1cnc(Nc2cc(NC[C@H]3CNCCO3)c(C(F)(F)F)cn2)cn1 [SRA737] + O=c1[nH]cc(F)c(=O)[nH]1 [5-Fluorouracil] (first compound max 10 µM, 7x7, partner max 20 µM)",0.0175,-0.0251,-0.0369,-0.0284,0.0445,0.0301,-0.0007,-0.0034,-0.0178,-0.0115,-0.0588,-0.0314,0.114,0.345,0.405,0.737,0.835,0.536,0.592,0.723
"CC1(C)CCC(CN2CCN(c3ccc(C(=O)NS(=O)(=O)c4ccc(NCC5CCOCC5)c([N+](=O)[O-])c4)c(Oc4cnc5[nH]ccc5c4)c3)CC2)=C(c2ccc(Cl)cc2)C1 [Venetoclax] + CS(=O)(=O)CCNCc1ccc(-c2ccc3ncnc(Nc4ccc(OCc5cccc(F)c5)c(Cl)c4)c3c2)o1 [Lapatinib] (first compound max 1 µM, 7x7, partner max 10 µM)",-0.0062,-0.0662,-0.0732,-0.0697,-0.0369,-0.019,0.0105,0.0811,0.0097,-0.0166,0.0163,-0.0407,0.0902,0.913,0.411,0.391,0.485,0.299,0.391,0.294
